Test results as given in patent US11453703B2, “Heterotandem bicyclic peptide complexes” (BicycleTX Limited, priority 2018, dated 2022).

Target: CD137 (Homo sapiens, UniProt Q07011)
Experiment: CD137 reporter assay, co-culture with Nectin-4 tumour cells;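 also: jurkat reporter cells co-cultured with tumour cells and test article for 6 h, luminescence signal relative to Jurkat plus tumour cells lacking test article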
Assay type: cell-based
Parameters: host or cells: Jurkat reporter cells
Details: for Fold Induction over Background / fold induction: tumour target Nectin4, co-culture with H1376, 6 h; for fold induction: read-out: Fold Induction over Background

Sequence of CD137 (Q07011 24-255): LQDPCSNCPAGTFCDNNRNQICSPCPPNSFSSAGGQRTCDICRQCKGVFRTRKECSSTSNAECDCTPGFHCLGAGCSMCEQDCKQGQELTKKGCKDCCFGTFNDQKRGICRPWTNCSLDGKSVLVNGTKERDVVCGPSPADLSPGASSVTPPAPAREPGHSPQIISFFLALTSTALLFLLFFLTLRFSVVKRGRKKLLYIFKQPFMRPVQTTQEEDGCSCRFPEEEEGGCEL

Row | Structure (SMILES) | EC50 [pM] | Fold Induction over Background [fold] | fold induction
1 | CCCC[C@@H]1NC(=O)[C@H](Cc2ccc(O)cc2)NC(=O)[C@@H]2CCCN2C(=O)[C@H](CC(=O)O)NC(=O)[C@H](C)NC(=O)[C@H](Cc2ccccc2)NC(=O)[C@@H]2CSCCC(=O)N3CN(CN(C3)C(=O)CCSC[C@@H](C(=O)N[C@@H](CNC(=O)CCc3cn(CC(=O)N[C@H]4CSCCC(=O)N5CN6CN(C5)C(=O)CCSC[C@H](NC(=O)[C@@H](CC(=O)O)NC(=O)[C@H](Cc5cccc7ccccc57)NC(=O)[C@@H]5CCCN5C4=O)C(=O)N[C@@H](CCSC)C(=O)N[C@@H](CCCCNC(=N)N)C(=O)N[C@@H](CC(=O)O)C(=O)N[C@@H](Cc4c[nH]c5ccccc45)C(=O)N[C@@H](CO)C(=O)N[C@@H]([C@@H](C)O)C(=O)N4CCC[C@H]4C(=O)N4C[C@H](O)C[C@H]4C(=O)N[C@@H](Cc4c[nH]c5ccccc45)C(=O)N[C@H](C(N)=O)CSCCC6=O)nn3)C(N)=O)NC1=O)C(=O)CCSC[C@H](NC(C)=O)C(=O)N[C@@H](CC(C)(C)C)C(=O)N1CCC[C@H]1C(=O)N[C@@H](CCC(=O)O)C(=O)N[C@H](C)C(=O)N1CCC[C@H]1C(=O)N[C@@H](Cc1ccc(O)cc1)C(=O)N2 [BCY11375] | 230 | 72 | 
2 | CCCC[C@@H]1NC(=O)[C@H](Cc2ccc(O)cc2)NC(=O)[C@@H]2CCCN2C(=O)[C@H](CC(=O)O)NC(=O)[C@H](C)NC(=O)[C@H](Cc2ccccc2)NC(=O)[C@@H]2CSCCC(=O)N3CN(CN(C3)C(=O)CCSC[C@@H](C(=O)N[C@@H](CNC(=O)CCc3cn(CCCNC(=O)CN(C)C(=O)CN(C)C(=O)CN(C)C(=O)CN(C)C(=O)CN(C)C(=O)CCOCCOCCOCCOCCOCCOCCOCCOCCOCCOCCOCCOCCOCCOCCOCCNC(=O)N[C@H]4CSCCC(=O)N5CN6CN(C5)C(=O)CCSC[C@H](NC(=O)[C@@H](CC(=O)O)NC(=O)[C@H](Cc5cccc7ccccc57)NC(=O)[C@@H]5CCCN5C4=O)C(=O)N[C@@H](CCSC)C(=O)N[C@@H](CCCCNC(=N)N)C(=O)N[C@@H](CC(=O)O)C(=O)N[C@@H](Cc4c[nH]c5ccccc45)C(=O)N[C@@H](CO)C(=O)N[C@@H]([C@@H](C)O)C(=O)N4CCC[C@H]4C(=O)N4C[C@H](O)C[C@H]4C(=O)N[C@@H](Cc4c[nH]c5ccccc45)C(=O)N[C@H](C(N)=O)CSCCC6=O)nn3)C(N)=O)NC1=O)C(=O)CCSC[C@H](NC(=O)[C@H](C)NC(C)=O)C(=O)N[C@@H]([C@@H](C)CC)C(=O)N[C@@H](CCC(=O)O)C(=O)N[C@@H](CCC(=O)O)C(=O)NCC(=O)N[C@@H](CCC(N)=O)C(=O)N[C@@H](Cc1ccc(O)cc1)C(=O)N2 [BCY9407] | 3400 | 29 | 
3 | CCCC[C@@H]1NC(=O)[C@H](Cc2ccc(O)cc2)NC(=O)[C@@H]2CCCN2C(=O)[C@H](CC(=O)O)NC(=O)[C@H](C)NC(=O)[C@H](Cc2ccccc2)NC(=O)[C@@H]2CSCCC(=O)N3CN(CN(C3)C(=O)CCSC[C@@H](C(=O)N[C@@H](CNC(=O)CCc3cn(CCOCCOCCOCCOCCOCCOCCOCCOCCOCCOCCNC(=O)N[C@H]4CSCCC(=O)N5CN6CN(C5)C(=O)CCSC[C@H](NC(=O)[C@@H](CC(=O)O)NC(=O)[C@H](Cc5cccc7ccccc57)NC(=O)[C@@H]5CCCN5C4=O)C(=O)N[C@@H](CCSC)C(=O)N[C@@H](CCCCNC(=N)N)C(=O)N[C@@H](CC(=O)O)C(=O)N[C@@H](Cc4c[nH]c5ccccc45)C(=O)N[C@@H](CO)C(=O)N[C@@H]([C@@H](C)O)C(=O)N4CCC[C@H]4C(=O)N4C[C@H](O)C[C@H]4C(=O)N[C@@H](Cc4c[nH]c5ccccc45)C(=O)N[C@H](C(N)=O)CSCCC6=O)nn3)C(N)=O)NC1=O)C(=O)CCSC[C@H](NC(=O)[C@H](C)NC(C)=O)C(=O)N[C@@H]([C@@H](C)CC)C(=O)N[C@@H](CCC(=O)O)C(=O)N[C@@H](CCC(=O)O)C(=O)NCC(=O)N[C@@H](CCC(N)=O)C(=O)N[C@@H](Cc1ccc(O)cc1)C(=O)N2 [BCY9399] |  |  | 13
4 | CCCC[C@@H]1NC(=O)[C@H](Cc2ccc(O)cc2)NC(=O)[C@@H]2CCCN2C(=O)[C@H](CC(=O)O)NC(=O)[C@H](C)NC(=O)[C@H](Cc2ccccc2)NC(=O)[C@@H]2CSCCC(=O)N3CN(CN(C3)C(=O)CCSC[C@@H](C(=O)N[C@@H](CNC(=O)CCc3cn(CCOCCOCCOCCOCCOCCC(=O)NCCC(=O)N(C)CC(=O)N(C)CC(=O)N(C)CC(=O)N(C)CC(=O)N(C)CC(=O)N(C)CC(=O)N(C)CC(=O)N(C)CC(=O)N(C)CC(=O)N(C)CC(=O)NCCCC[C@H]4NC(=O)[C@H](Cc5cccc6ccccc56)NC(=O)[C@@H]5CCCN5C(=O)[C@@H](NC(C)=O)CSCCC(=O)N5CN6CN(C5)C(=O)CCSC[C@H](NC4=O)C(=O)N[C@@H](CCSC)C(=O)N[C@@H](CCCCNC(=N)N)C(=O)N[C@@H](CC(=O)O)C(=O)N[C@@H](Cc4c[nH]c5ccccc45)C(=O)N[C@@H](CO)C(=O)N[C@@H]([C@@H](C)O)C(=O)N4CCC[C@H]4C(=O)N4C[C@H](O)C[C@H]4C(=O)N[C@@H](Cc4c[nH]c5ccccc45)C(=O)N[C@H](C(N)=O)CSCCC6=O)nn3)C(N)=O)NC1=O)C(=O)CCSC[C@H](NC(C)=O)C(=O)N[C@@H](CC(C)(C)C)C(=O)N1CCC[C@H]1C(=O)N[C@@H](CCC(=O)O)C(=O)N[C@H](C)C(=O)N1CCC[C@H]1C(=O)N[C@@H](Cc1ccc(O)cc1)C(=O)N2 [BCY11020] |  | 47 | 
5 | CCCC[C@@H]1NC(=O)[C@H](Cc2ccc(O)cc2)NC(=O)[C@@H]2CCCN2C(=O)[C@H](CC(=O)O)NC(=O)[C@H](C)NC(=O)[C@H](Cc2ccccc2)NC(=O)[C@@H]2CSCCC(=O)N3CN(CN(C3)C(=O)CCSC[C@@H](C(=O)N[C@@H](CNC(=O)CCc3cn(CCOCCOCCOCCOCCOCCC(=O)N[C@H]4CSCCC(=O)N5CN6CN(C5)C(=O)CCSC[C@H](NC(=O)[C@@H](CC(=O)O)NC(=O)[C@H](Cc5cccc7ccccc57)NC(=O)[C@@H]5CCCN5C4=O)C(=O)N[C@@H](CCSC)C(=O)N[C@@H](CCCCNC(=N)N)C(=O)N[C@@H](CC(=O)O)C(=O)N[C@@H](Cc4c[nH]c5ccccc45)C(=O)N[C@@H](CO)C(=O)N[C@@H]([C@@H](C)O)C(=O)N4CCC[C@H]4C(=O)N4C[C@H](O)C[C@H]4C(=O)N[C@@H](Cc4c[nH]c5ccccc45)C(=O)N[C@H](C(N)=O)CSCCC6=O)nn3)C(N)=O)NC1=O)C(=O)CCSC[C@H](NC(C)=O)C(=O)N[C@@H](CC(C)(C)C)C(=O)N1CCC[C@H]1C(=O)N[C@@H](CCC(=O)O)C(=O)N[C@H](C)C(=O)N1CCC[C@H]1C(=O)N[C@@H](Cc1ccc(O)cc1)C(=O)N2 [BCY10573] | 900 | 55 | 
6 | CCCC[C@@H]1NC(=O)[C@H](Cc2ccc(O)cc2)NC(=O)[C@@H]2CCCN2C(=O)[C@H](CC(=O)O)NC(=O)[C@H](C)NC(=O)[C@H](Cc2ccccc2)NC(=O)[C@@H]2CSCCC(=O)N3CN(CN(C3)C(=O)CCSC[C@@H](C(=O)N[C@@H](CNC(=O)CCc3cn(CCOCCOCCOCCOCCOCCOCCOCCOCCOCCOCCOCCOCCOCCOCCOCCOCCOCCOCCOCCOCCOCCOCCOCCNC(=O)N[C@H]4CSCCC(=O)N5CN6CN(C5)C(=O)CCSC[C@H](NC(=O)[C@@H](CC(=O)O)NC(=O)[C@H](Cc5cccc7ccccc57)NC(=O)[C@@H]5CCCN5C4=O)C(=O)N[C@@H](CCSC)C(=O)N[C@@H](CCCCNC(=N)N)C(=O)N[C@@H](CC(=O)O)C(=O)N[C@@H](Cc4c[nH]c5ccccc45)C(=O)N[C@@H](CO)C(=O)N[C@@H]([C@@H](C)O)C(=O)N4CCC[C@H]4C(=O)N4C[C@H](O)C[C@H]4C(=O)N[C@@H](Cc4c[nH]c5ccccc45)C(=O)N[C@H](C(N)=O)CSCCC6=O)nn3)C(N)=O)NC1=O)C(=O)CCSC[C@H](NC(=O)[C@H](C)NC(C)=O)C(=O)N[C@@H]([C@@H](C)CC)C(=O)N[C@@H](CCC(=O)O)C(=O)N[C@@H](CCC(=O)O)C(=O)NCC(=O)N[C@@H](CCC(N)=O)C(=O)N[C@@H](Cc1ccc(O)cc1)C(=O)N2 [BCY9400] |  |  | 13
